Measurements taken from patent US5677274A (The Government of the United States as represented by the …, priority 1993, dated 1997).

Test system: CHO cells
Type: cell-based, Chinese Hamster

Q: What does the source list for CC[C@@]1([C@@H]2O[C@@H]([C@H]3O[C@@](O)(CO)[C@H](C)C[C@@H]3C)C[C@@H]2C)CC[C@H]([C@]2(C)CC[C@]3(C[C@H](O)[C@@H](C)[C@@H]([C@@H](C)[C@@H](OC)[C@H](C)C(=O)O)O3)O2)O1 [monensin]?
A: decrease in potency of FP33: > 100 fold; protection against the other three fusion proteins: exceeded 20 fold
